Data reported in US20240132464A1, “HETEROCYCLIC COMPOUNDS AS E3 LIGASE INHIBITORS” (Accutar Biotechnology Inc., priority 2022, published 2024).

Molecular target: T1, GID4 (Uniprot ID: Q81VV7, residues 124-289) (Homo sapiens, UniProt Q8IVV7)
T1 construct: GID4 (Uniprot ID: Q81VV7, residues 124-289)
T1 sequence (Q8IVV7 124-289): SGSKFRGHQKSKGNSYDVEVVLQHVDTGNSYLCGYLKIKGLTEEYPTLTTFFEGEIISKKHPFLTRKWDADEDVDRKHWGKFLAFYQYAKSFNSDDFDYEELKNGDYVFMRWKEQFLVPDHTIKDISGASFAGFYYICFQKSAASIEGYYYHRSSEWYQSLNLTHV
Experiment: GID4 competitive binding assay (AlphaScreen, GID4/degron peptide PGLW)
Settings: 24 nM GID4, 48 nM biotinylated degron peptide PGLW, 4° C., read-out: IC50 (Inhibition of GID4/Degron binding by test compounds)
Procedure, shortened: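 Displacement of biotin-tagged degron tetrapeptide PGLW (48 nM) from C-terminally 6His-tagged GID4 124-289 (24 nM) read by AlphaScreen proximity signal. Compound incubation 2 h, then beads 1 h, all at 4 °C, pH 7.5, 2% DMSO final; background-corrected inhibition fitted with variable slope for IC50.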

| IC50 [µM] | SMILES |
| --- | --- |
| 0.5 to 5 | CN(C)CCCNC(=O)C1CC=C(c2cc(O)c3ncccc3c2)CC1 (stereo not shown) [Compound 305, N-(3-(dimethylamino)propyl)-4-(8-hydroxyquinolin-6-yl)cyclohex-3-ene-1-carboxamide] |
| < 0.5 | CC(C)c1cc(N2CCCC(n3cnc4ccccc43)C2)nc(N)n1 (stereo not shown) [Compound 256, 4-(3-(1H-benzo[d]imidazol-1-yl)piperidin-1-yl)-6-isopropylpyrimidin-2-amine] |
| < 0.5 | Nc1nc(NCC2CC2)cc(N2CCN[C@@H](c3ccccc3Br)C2)n1 (racemic) [Compound 112, (S/R)-6-(3-(2-bromophenyl)piperazin-1-yl)-N4-(cyclopropylmethyl)pyrimidine-2,4-diamine] |
| > 5 | CC(C)c1cc(N2CCCC(c3ccn[nH]3)C2)nc(N)n1 (stereo not shown) [Compound 210, 4-(3-(1H-pyrazol-5-yl)piperidin-1-yl)-6-isopropylpyrimidin-2-amine] |
| 0.5 to 5 | Nc1nc(NC2CC2)nc(N2CCN[C@@H](c3ccccc3Br)C2)n1 (stereo in doubt) [Compound 65, (S/R)-6-(3-(2-bromophenyl)piperazin-1-yl)-N2-cyclopropyl-1,3,5-triazine-2,4-diamine] |
| 0.5 to 5 | Nc1cc(N2CCCC(c3cnc4ccccn34)C2)nc(N)n1 (racemic) [Compound 116, (R/S)-6-(3-(imidazo[1,2-a]pyridin-3-yl)piperidin-1-yl)pyrimidine-2,4-diamine] |
| < 0.5 | CN(C)CCCNC(=O)c1csc(-c2cc(O)c3ncccc3c2)c1 [Compound 281, N-(3-(dimethylamino)propyl)-5-(8-hydroxyquinolin-6-yl)thiophene-3-carboxamide] |
| < 0.5 | CN(C)CCNC(=O)c1ccc(-c2cc(O)c3ncncc3c2)cc1 [Compound 270, N-(2-(dimethylamino)ethyl)-4-(8-hydroxyquinazolin-6-yl)benzamide] |
| 0.5 to 5 | CC(C)c1cc(-c2cc(-c3ccnn3C)c3ccnc(-c4cc[nH]n4)c3n2)cc(N)n1 [Compound 366, 6-isopropyl-4-(4-(1-methyl-1H-pyrazol-5-yl)-8-(1H-pyrazol-3-yl)-1,7-naphthyridin-2-yl)pyridin-2-amine] |
| > 5 | Nc1nc2c(c(N3CCCC(c4ccn[nH]4)C3)n1)COCC2 (stereo not shown) [Compound 196, 4-(3-(1H-pyrazol-5-yl)piperidin-1-yl)-7,8-dihydro-5H-pyrano[4,3-d]pyrimidin-2-amine] |
| > 5 | CNC(=O)c1ccc2nnc(C3CCCN(c4cc(C(C)C)nc(N)n4)C3)n2c1 (stereo not shown) [Compound 166, 3-(1-(2-amino-6-isopropylpyrimidin-4-yl)piperidin-3-yl)-N-methyl-[1,2,4]triazolo[4,3-a]pyridine-6-carboxamide] |
| > 5 | CC(C)c1cc(Nc2cccc(-c3cnccn3)c2)nc(N)n1 [Compound 198, 6-isopropyl-N4-(3-(pyrazin-2-yl)phenyl)pyrimidine-2,4-diamine] |
| 0.5 to 5 | Nc1cc(N2CC[C@H](O)[C@@H](c3ccccc3Br)C2)nc(N)n1 (relative stereo) [Compound 222, (3,4-trans)-3-(2-bromophenyl)-1-(2,6-diaminopyrimidin-4-yl)piperidin-4-ol] |
| < 0.5 | CN(C)[C@H]1CC[C@@H](NC(=O)c2ccc(-c3cc(O)c4ncccc4c3)cc2)CC1 [Compound 286, N-(cis-4-(dimethylamino)cyclohexyl)-4-(8-hydroxyquinolin-6-yl)benzamide] |
| > 5 | Cc1nc(N)nc(N2CCCC(c3ccn[nH]3)C2)c1C (stereo not shown) [Compound 214, 4-(3-(1H-pyrazol-5-yl)piperidin-1-yl)-5,6-dimethylpyrimidin-2-amine] |
| < 0.5 | CN(C)CCCNC(=O)c1ccc(-c2cc3cccnc3c(O)c2F)cc1 [Compound 308, N-(3-(dimethylamino)propyl)-4-(7-fluoro-8-hydroxyquinolin-6-yl)benzamide] |

| IC50 [µM] | SMILES |
| --- | --- |
| 0.5 to 5 | CN(C)CCCNC(=O)c1ccc2c(-c3ccc4ccnc(N)c4c3)csc2c1 [Compound 357, 3-(1-aminoisoquinolin-7-yl)-N-(3-(dimethylamino)propyl)benzo[b]thiophene-6-carboxamide] |
| 0.5 to 5 | Nc1cc(N2CCN(CCO)[C@H](c3ccccc3Br)C2)nc(N)n1 (stereo in doubt) [Compound 67, (R/S)-2-(2-(2-bromophenyl)-4-(2,6-diaminopyrimidin-4-yl)piperazin-1-yl)ethan-1-ol] |
| 0.5 to 5 | CC(C)c1cc(N2CCN[C@@H](c3cc(C(F)(F)F)ccc3Br)C2)nc(N)n1 (racemic) [Compound 14, (S/R)-4-(3-(2-bromo-5-(trifluoromethyl)phenyl)piperazin-1-yl)-6-isopropylpyrimidin-2-amine] |
| > 5 | CNc1cc(N2CCCC(n3nc4ccccc4n3)C2)nc(N)n1 (stereo not shown) [Compound 259, 6-(3-(2H-benzo[d][1,2,3]triazol-2-yl)piperidin-1-yl)-N4-methylpyrimidine-2,4-diamine] |
| > 5 | CC(C)c1cc(N2CCCC(c3cnc4ccccn34)C2)ncn1 (single isomer, unassigned) [Compound 149, (S/R)-3-(1-(6-isopropylpyrimidin-4-yl)piperidin-3-yl)imidazo[1,2-a]pyridine] |
| 0.5 to 5 | CC(C)c1cc(N2CCCC(O)(c3ccccc3Br)C2)nc(N)n1 (stereo not shown) [Compound 236, 1-(2-amino-6-isopropylpyrimidin-4-yl)-3-(2-bromophenyl)piperidin-3-ol] |
| 0.5 to 5 | Nc1nc(C2CC2)cc(N2CCNC(c3cnc4ccccn34)C2)n1 (single isomer, unassigned) [Compound 103, (S/R)-4-cyclopropyl-6-(3-(imidazo[1,2-a]pyridin-3-yl)piperazin-1-yl)pyrimidin-2-amine] |
| > 5 | Nc1cc(N2CCCC(n3ncc4ccccc43)C2)nc(N)n1 (stereo not shown) [Compound 89, 6-(3-(1H-indazol-1-yl)piperidin-1-yl)pyrimidine-2,4-diamine] |
| > 5 | CC(C)c1cc(N2CCNC(c3ccccc3)C2)nc(N)n1 (stereo not shown) [Compound 165, 4-isopropyl-6-(3-phenylpiperazin-1-yl)pyrimidin-2-amine] |
| < 0.5 | CC(C)c1cc(N2CCNC(c3ccc(O)cc3Br)C2)nc(N)n1 (stereo not shown) [Compound 164, 4-(4-(2-amino-6-isopropylpyrimidin-4-yl)piperazin-2-yl)-3-bromophenol] |
| < 0.5 | CN(C)CCCNC(=O)c1c[nH]c(-c2cc(O)c3ncccc3c2)n1 [Compound 277, N-(3-(dimethylamino)propyl)-2-(8-hydroxyquinolin-6-yl)-1H-imidazole-4-carboxamide] |
| > 5 | CN(C)CCCNC(=O)c1cccc(-c2ccc3ccnc(N)c3n2)c1 [Compound 340, 3-(8-amino-1,7-naphthyridin-2-yl)-N-(3-(dimethylamino)propyl)benzamide] |
| > 5 | CC(C)c1cc(N2CCOC(c3cnc4ccccn34)C2)nc(N)n1 (single isomer, unassigned) [Compound 157, (S/R)-4-(2-(imidazo[1,2-a]pyridin-3-yl)morpholino)-6-isopropylpyrimidin-2-amine] |
| 0.5 to 5 | Cc1c(-c2ccc(C(=O)NCCCN(C)C)cc2)cc(O)c2ncccc12 [Compound 319, N-(3-(dimethylamino)propyl)-4-(8-hydroxy-5-methylquinolin-6-yl)benzamide] |
| > 5 | Nc1cc(N2CCCC(n3c(=O)[nH]c4ccccc43)C2)nc(N)n1 (stereo not shown) [Compound 257, 1-(1-(2,6-diaminopyrimidin-4-yl)piperidin-3-yl)-1,3-dihydro-2H-benzo[d]imidazol-2-one] |
